Assay results taken from publication PMC10046037, “GABRG2 Variants Associated with Febrile Seizures” (Biomolecules, 2023).

Target: T1, α1β3γ2 GABAA receptor, γ2F457S variant (Homo sapiens, UniProt P14867+P18507+P28472, F457S)
T1 construct: expressed in transfected cells; host or cells: HEK293T
T1 sequence (P14867 28-456): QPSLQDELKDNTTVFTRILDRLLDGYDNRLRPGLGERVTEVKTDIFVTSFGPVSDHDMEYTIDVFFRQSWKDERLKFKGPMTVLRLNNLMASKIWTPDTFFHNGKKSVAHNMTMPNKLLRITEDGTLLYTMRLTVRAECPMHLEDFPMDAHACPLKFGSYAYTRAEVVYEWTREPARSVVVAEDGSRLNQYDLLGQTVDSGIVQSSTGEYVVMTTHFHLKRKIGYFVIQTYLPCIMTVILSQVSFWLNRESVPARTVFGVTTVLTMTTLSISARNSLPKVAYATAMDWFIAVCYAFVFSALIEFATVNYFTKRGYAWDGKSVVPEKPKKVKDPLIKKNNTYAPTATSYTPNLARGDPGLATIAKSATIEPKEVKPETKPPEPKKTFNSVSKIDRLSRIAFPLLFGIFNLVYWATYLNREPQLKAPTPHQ
T1 sequence (P28472 26-473 isoform P28472-2): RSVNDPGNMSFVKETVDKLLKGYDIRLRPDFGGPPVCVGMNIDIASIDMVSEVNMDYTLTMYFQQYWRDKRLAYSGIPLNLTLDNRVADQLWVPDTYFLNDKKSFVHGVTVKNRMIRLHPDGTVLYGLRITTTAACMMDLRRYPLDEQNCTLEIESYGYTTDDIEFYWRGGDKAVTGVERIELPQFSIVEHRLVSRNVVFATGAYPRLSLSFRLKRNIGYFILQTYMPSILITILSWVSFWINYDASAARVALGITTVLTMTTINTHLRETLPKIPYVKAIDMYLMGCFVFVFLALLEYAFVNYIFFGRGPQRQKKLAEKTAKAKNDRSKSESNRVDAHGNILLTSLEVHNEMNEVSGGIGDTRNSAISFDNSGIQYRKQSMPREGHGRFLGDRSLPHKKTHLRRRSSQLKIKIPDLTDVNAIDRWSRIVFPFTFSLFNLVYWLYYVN
T1 sequence (P18507 40-475 F457S): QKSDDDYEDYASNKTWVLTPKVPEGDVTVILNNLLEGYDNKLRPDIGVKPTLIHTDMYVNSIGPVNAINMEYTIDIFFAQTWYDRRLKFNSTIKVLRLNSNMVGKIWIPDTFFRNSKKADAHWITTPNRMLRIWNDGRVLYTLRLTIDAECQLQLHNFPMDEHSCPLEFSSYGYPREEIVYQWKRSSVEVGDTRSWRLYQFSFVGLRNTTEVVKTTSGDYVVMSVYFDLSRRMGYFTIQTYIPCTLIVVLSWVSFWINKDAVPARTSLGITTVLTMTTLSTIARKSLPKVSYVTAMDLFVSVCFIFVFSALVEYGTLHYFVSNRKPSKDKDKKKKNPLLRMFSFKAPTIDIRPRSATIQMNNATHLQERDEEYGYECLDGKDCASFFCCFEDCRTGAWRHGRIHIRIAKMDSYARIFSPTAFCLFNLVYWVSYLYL
Assay: Automated patch clamp of GABA-elicited currents (SyncroPatch 384PE), γ2F457S
Assay type: cell-based
Settings: mean
Procedure: The coding sequences of human α1 (GABRA1, NM_000806), β3 (GABRB3, NM_021912), and γ2 (GABRG2, NM_198904.2) GABAAR subunits were subcloned into the pcDNA3.1 expression vectors (Invitrogen, Waltham, MA, USA).
HEK293T cells (ATCC, CRL-11268) were cultured at 37 °C in a humidified 5% CO2 incubator and maintained in Dulbecco’s modified Eagle’s medium (Invitrogen) supplemented with 10% fetal bovine serum (Life Technologies, Carlsbad, CA, USA), and 100 IU/mL of penicillin/streptomycin (Life Technologies). For the expression experiments, 4 × 10^5 cells were transfected using polyethylenimine (PEI) reagent (40 kD, Polysciences, Warrington, PA, USA) at a DNA: to transfection reagent ratio of 1:2.5 and harvested 36 h after transfection. To express WT and variant α1β3γ2 receptors, a total of 3 µg of α1, β3, and γ2 (WT or mutant) subunit cDNAs were transfected at a ratio of 1:1:1 into 60 mm culture dishes. For the mock-transfected condition, an empty pcDNA3.1 vector was added for a final cDNA transfection amount of 3 μg. For the electrophysiology experiments, 2.5 × 10^5 cells were plated in 100 mm culture dishes and transfected after 24 h with 3 μg of cDNA of each α1, β3, γ2 (wild-type or mutant) subunit, using X-tremeGENE HP DNA transfection Reagent (Roche Diagnostics, Basel, Switzerland), following the manufacturer’s protocol. Recordings were obtained forty-eight hours after transfection.
Whole-cell patch clamp recordings were conducted according to the manufacturer’s standard procedure for the SyncroPatch 384 [31]. Whole-cell voltage-clamp recordings were performed at room temperature on HEK293T cells 48 h after transfection with GABAAR subunits, using the SyncroPatch 384PE (Nanion Technologies, Munich, Germany). Cells, at a concentration of 400,000 cells/mL, were harvested in suspension in external solution containing 140 mM of NaCl, 2 mM of CaCl2, 4 mM of KCl, 1 mM of MgCl2, 5 mM of glucose, and 10 mM of HEPES (pH 7.4 with NaOH, 298 mOsm). The cells were loaded in a multi-hole (4 holes per well) 384-well Nanion patch clamp (NPC) chip with a thick borosilicate glass bottom and an average resistance pore size of […]. Built-in electrophysiological protocols were used, and the data were digitized using PatchControl 384 (Nanion Technologies) application. Using PatchControl 384, electrophysiological parameters, such as seal resistance, capacitance, and series resistance, were determined for each well after the application of a test pulse, and subsequently monitored over time. […] The currents were normalized to the maximal response of each well, and the concentration–response curves were calculated from single-point additions. The EC50 values for each variant or wild-type receptor were calculated across multiple wells for each experimental condition.

With `NCCCC(=O)O` [GABA, γ-aminobutyric acid] the Deactivation (1 mM GABA for 5 ms, HEK293T, -80 mV) was 224.8 ms, the “IMAX (maximal GABA-evoked peak current)” value (1 mM GABA for 5 ms, HEK293T) was 0.44 nA and the “IMAX variant/IMAX WT” value (1 mM GABA) was 21.96%. For the same compound, the “Rise Time” value (10–90% rise time, 1 mM GABA for 5 ms, HEK293T) was 60.51 ms.
